Key:
ERK1/2 phosphorylation = ERK1/2 phosphorylation in MCF-10A cells expressing oncogenic RasG12V; format: cell-based; conditions: 25 μM COB223
Procedure: (§1) Figure 11 Effect of COB223 on mitogenic or oncogenic activation of the Ras /MEK/ERK signaling pathway (A) Serum-starved HUVEC cells were incubated for 15 min in the presence of 10 ng/mL VEGF-A and in the absence or the presence of 25 μM COB223. The phosphorylations of PLCγ on tyrosine 783, of Raf on serine 338 or on serine 259 and of ERK1/2 were then analyzed by Western blot analysis of the cell lysates as described in Material and Methods. Western blots for total PLCγ, Raf and ERK1/2 were used as loading controls. (B) MCF10A cells overexpressing an oncogenic version of Ras (MCF10A-RasG12V) were treated for the indicated periods of time by 25 μM COB223. Total ERK1/2 and phospho-ERK1/2 were then visualized by Western blotting of the cell extracts. Non-treated regular MCF10A cells were analyzed as a control (first lane). (C) CCL-39 fibroblasts expressing a constitutively active Raf in an estrogen-responsive manner were stimulated for 3 h with estradiol and treated for 15 or 30 min with 25 μM COB223. Total ERK1/2 and phospho-ERK1/2 were then visualized by Western blotting of the cell extracts. Non-treated cells were analyzed as a control (left lanes).

MEK phosphorylation = experiment: Western blot, MEK phosphorylation in HUVEC; format: cell-based, human; conditions: 10 ng/mL VEGF-A 15 min, 25 μM COB223
Procedure: (§2) Figure 9 Effect of COB223 on growth factor-induced VEGF-R2, MEK and ERK phosphorylations (A) Serum-starved HUVEC cells were incubated for 15 min in the presence of either 10 ng/mL VEGF-A or 20 ng/mL FGF-2 and in the absence or the presence of 25 μM COB223. The phosphorylations of VEGFR2 on tyrosine 1175 or tyrosine 1214, of MEK and ERK1/2 were then analyzed by Western blot analysis of the cell lysates as described in Material and Methods. Western blots for total VEGFR2, MEK and ERK1/2 were used as loading controls. The blots shown in Figure 9A were obtained in one representative experiment. (B) The hybridization signals observed in 5 similar but independent experiments were quantitated and the ratios between phospho-VEGFR2(Y1175) or (Y1214) and VEGFR2 signals were normalized to the value observed in the absence of COB223. (C) The hybridization signals observed in 5 similar but independent experiments were quantitated and the ratios between phospho-ERK1/2 and ERK1/2 and between phospho-MEK and MEK were normalized to the values observed in the absence of COB223. Additional experiments performed with 10% fetal calf serum (FCS) as a mitogen were included in this analysis. * : p < 0.05; ** : p < 0.01
(§3) Serum-starved HUVEC cells were incubated for 15 min in the presence of either 10 ng/mL VEGF-A or 20 ng/mL FGF-2 and in the absence or the presence of indicated concentration of COB223. […]

ERK2 = ERK2 (Homo sapiens, UniProt P28482); experiment: In vitro kinase assay ERK2; format: biochemical; conditions: concentrations up to 50 μM
Sequence of ERK2 (P28482 whole entry, species assumed): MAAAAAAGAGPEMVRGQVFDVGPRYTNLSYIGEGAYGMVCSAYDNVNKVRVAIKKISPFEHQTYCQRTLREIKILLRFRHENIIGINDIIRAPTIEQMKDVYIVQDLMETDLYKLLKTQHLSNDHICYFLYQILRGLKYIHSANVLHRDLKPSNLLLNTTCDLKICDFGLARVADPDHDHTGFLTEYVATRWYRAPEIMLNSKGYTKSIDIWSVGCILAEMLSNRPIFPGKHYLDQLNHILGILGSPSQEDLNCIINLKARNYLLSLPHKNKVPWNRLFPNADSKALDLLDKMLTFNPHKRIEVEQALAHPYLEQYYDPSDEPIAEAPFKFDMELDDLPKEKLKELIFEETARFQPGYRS
Procedure: (§4) We first wondered whether COB223 required to be internalized to exert its biological effect. For this, we synthesized a covalent complex between BSA and COB223 and purified it. […] In vitro kinase assays were performed with a panel of purified protein-kinases involved in mitogenic signaling, including VEGFR2, FGFR1, FGFR2, PDGFRß, Met, Raf, MEK1, ERK1, ERK2, PKCα, PKCβI, PKCβII, PKCζ as indicated in Table 2. […] We then analyzed the effect of COB223 on VEGF-induced phosphorylations of VEGFR2, MEK and ERK1/2 (Figure 9). […] (Figure 9A, 9B). […] It was also specific of the p42/p44 MAP kinase pathway as activation of p38 MAP kinase phosphorylation in HUVEC cells by VEGF or serum was unaffected by COB223 (data not shown). The activation of src phosphorylation by VEGF in HUVECs was also unaffected by COB223 (data not shown).

ERK1 = ERK1 (Homo sapiens, UniProt P27361); experiment: In vitro kinase assay ERK1; format: biochemical; conditions: concentrations up to 50 μM
Sequence of ERK1 (P27361 whole entry, species assumed): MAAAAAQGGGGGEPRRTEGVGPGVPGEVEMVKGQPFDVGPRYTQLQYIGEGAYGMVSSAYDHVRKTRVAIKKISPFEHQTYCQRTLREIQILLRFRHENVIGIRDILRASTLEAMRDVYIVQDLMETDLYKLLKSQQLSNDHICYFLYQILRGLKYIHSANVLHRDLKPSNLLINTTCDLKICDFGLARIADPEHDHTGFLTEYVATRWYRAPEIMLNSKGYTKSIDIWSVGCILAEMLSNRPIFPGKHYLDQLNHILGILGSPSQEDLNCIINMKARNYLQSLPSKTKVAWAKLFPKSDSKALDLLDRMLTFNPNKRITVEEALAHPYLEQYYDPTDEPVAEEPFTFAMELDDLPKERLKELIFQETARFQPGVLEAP
Procedure: as §4

ERK phosphorylation = ERK phosphorylation in CCL-39 fibroblasts with estrogen-responsive active Raf; format: cell-based; conditions: estradiol 3 h, 25 μM COB223 15 or 30 min
Procedure: as §1

[1] = Tolerance in treated LLC/2 tumor-bearing mice; format: in vivo, mouse; conditions: two week-long treatment with up to 16 mg/kg i.p.
Procedure: We chose this model because of its rapid growth in syngenic mice and its strong dependence on angiogenesis. LLC/2 cells (10^6 in 50 μL medium) were subcutaneously injected into the right flank of […] mice. Seven days after tumor inoculation, mice were given an intraperitoneal (i.p.) injection of either solvent (1.7% DMSO) or COB223 every other day. Tumor size was measured with calipers, and the volume was calculated according to the formula (L*w^2)/2 where L and […] stand for length and width respectively. All mice were killed 21 days after tumor grafting.

MEK1 = MEK1 (Homo sapiens, UniProt Q02750); experiment: In vitro kinase assay MEK1; format: biochemical; conditions: concentrations up to 50 μM
Sequence of MEK1 (Q02750 whole entry, species assumed): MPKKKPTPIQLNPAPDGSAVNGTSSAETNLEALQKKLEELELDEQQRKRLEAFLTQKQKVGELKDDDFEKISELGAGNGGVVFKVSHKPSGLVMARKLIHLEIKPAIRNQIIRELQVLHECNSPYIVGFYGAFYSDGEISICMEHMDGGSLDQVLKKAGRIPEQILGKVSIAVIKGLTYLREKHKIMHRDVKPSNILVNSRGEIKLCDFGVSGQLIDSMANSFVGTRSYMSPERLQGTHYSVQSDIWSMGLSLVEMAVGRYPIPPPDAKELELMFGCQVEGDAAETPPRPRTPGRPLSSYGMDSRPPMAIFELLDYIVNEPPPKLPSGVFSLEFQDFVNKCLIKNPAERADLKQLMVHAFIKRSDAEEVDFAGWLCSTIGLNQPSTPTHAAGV
Procedure: as §4

HMVECd cells = experiment: Cell viability WST-1, HMVECd; format: cell-based, human; conditions: confluent HMVECd, 24 h at 37°C
Procedure: (§5) Once they had reached confluency, cells were kept for 24 hours in medium supplemented with 0.5% FCS (LLC/2 and 3T3 cells) or 2.5% FCS (HUVEC and HMVEC-d cells), in the presence of COB223 at different concentrations. WST-1 assay (Roche Diagnostic, Meylan, France) was then performed according to the manufacturer's instructions.

VEGFR2 phosphorylation = experiment: Western blot, VEGFR2 autophosphorylation in HUVEC; format: cell-based, human; conditions: 10 ng/mL VEGF-A 15 min, 25 μM COB223
Procedure: as §2, §3

VEGFR2 (KDR) = VEGFR2 (KDR) (Homo sapiens, UniProt P35968); experiment: In vitro kinase assay VEGFR2; format: biochemical; conditions: concentrations up to 50 μM
Sequence of VEGFR2 (KDR) (P35968 20-1356, species assumed): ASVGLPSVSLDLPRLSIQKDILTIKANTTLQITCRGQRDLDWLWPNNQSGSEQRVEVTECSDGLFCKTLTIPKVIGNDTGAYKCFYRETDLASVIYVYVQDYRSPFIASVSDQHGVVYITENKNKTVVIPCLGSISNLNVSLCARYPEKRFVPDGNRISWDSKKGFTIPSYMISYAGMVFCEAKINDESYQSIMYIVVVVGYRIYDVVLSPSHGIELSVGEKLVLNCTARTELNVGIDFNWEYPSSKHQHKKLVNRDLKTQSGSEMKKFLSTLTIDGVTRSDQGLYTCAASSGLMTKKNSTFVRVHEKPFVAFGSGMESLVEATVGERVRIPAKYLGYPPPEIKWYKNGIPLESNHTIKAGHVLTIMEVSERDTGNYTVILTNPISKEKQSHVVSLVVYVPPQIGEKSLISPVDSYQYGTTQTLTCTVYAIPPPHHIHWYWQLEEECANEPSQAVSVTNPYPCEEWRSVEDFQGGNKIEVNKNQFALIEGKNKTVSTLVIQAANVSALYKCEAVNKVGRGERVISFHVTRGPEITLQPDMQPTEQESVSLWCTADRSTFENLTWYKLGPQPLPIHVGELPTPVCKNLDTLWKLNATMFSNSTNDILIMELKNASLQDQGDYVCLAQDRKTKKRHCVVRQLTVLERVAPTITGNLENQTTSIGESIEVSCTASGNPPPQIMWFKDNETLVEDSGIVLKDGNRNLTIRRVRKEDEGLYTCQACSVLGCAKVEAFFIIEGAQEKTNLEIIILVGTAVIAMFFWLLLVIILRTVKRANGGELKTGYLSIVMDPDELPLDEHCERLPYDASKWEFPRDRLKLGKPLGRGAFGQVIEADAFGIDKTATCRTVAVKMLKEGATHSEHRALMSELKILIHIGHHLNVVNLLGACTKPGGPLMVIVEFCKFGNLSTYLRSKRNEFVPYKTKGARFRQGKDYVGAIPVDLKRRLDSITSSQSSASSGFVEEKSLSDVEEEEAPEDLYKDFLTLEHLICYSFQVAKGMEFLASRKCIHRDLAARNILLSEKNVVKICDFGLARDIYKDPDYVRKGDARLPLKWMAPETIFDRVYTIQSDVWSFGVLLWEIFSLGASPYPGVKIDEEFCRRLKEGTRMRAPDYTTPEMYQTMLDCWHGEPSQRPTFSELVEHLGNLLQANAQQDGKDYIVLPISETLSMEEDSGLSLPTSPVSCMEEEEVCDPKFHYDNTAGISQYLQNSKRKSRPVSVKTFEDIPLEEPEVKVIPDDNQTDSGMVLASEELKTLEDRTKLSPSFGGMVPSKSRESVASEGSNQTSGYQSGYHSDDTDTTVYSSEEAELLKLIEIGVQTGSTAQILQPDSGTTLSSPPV
Procedure: as §4

PKCα = PKCα (Homo sapiens, UniProt P17252); experiment: In vitro kinase assay PKCα; format: biochemical; conditions: concentrations up to 50 μM
Procedure: as §4

HUVEC cells = experiment: Cell viability WST-1, HUVEC; format: cell-based, human; conditions: confluent HUVEC, 24 h at 37°C
Procedure: as §5

CN(C)c1cccc2c(S(=O)(=O)NCCCN3CCN(CCCNC(=O)OC(C)(C)C)CC3)cccc12 [COB223, tert-Butyl 3-(4-(3-(5-(dimethylamino)naphthalene-1-sulfonamido)propyl)piperazin-1-yl) propylcarbamate]
constitutive phosphorylation of ERK1/2 induced by oncogenic RasG12V (ERK1/2 phosphorylation): did not modify | VEGF-induced phosphorylation of MEK (MEK phosphorylation): significantly inhibited | kinase inhibition (ERK2): None of them was inhibited | kinase inhibition (ERK1): None of them was inhibited | ERK phosphorylation induced by estrogen (ERK phosphorylation): did not inhibit | tolerance, adverse effects [1]: no adverse effect was observed | kinase inhibition (MEK1): None of them was inhibited | cytotoxic concentrations (HMVECd cells): > 50 µM | autophosphorylation of VEGFR2 on tyrosine 1175 (VEGFR2 phosphorylation): did not alter | autophosphorylation of VEGFR2 on tyrosine 1214 (VEGFR2 phosphorylation): did not alter | kinase inhibition (VEGFR2 (KDR)): None of them was inhibited | kinase inhibition (PKCα): None of them was inhibited | cytotoxic concentrations (HUVEC cells): > 50 µM
